Molecules are shown by their SMILES.

One may read the EC50 as the midpoint of the concentration-response curve.

This assay has as its system HCV 1b-377-neo replicon cells. The assay can be described thus: HCV replicon assay, HCV 1b-377-neo replicon cells (1b FRET). In kind it is cell-based, Hepatitis C virus genotype 1b. As to conditions: Hepatitis C virus, HCV 1b-377-neo replicon cells; HCV 1b genotype; read-out: EC50 range against HCV 1b (Table 2, Range). In short, it runs like this: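 Compounds were tested in genotype 1b subgenomic replicon cells carrying a neomycin marker, alongside a matched replicon line with an NS5A Y2065H substitution that confers resistance to a reference NS5A inhibitor.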
For orientation: In antiviral work, replicon cells carry a viral genome segment that copies itself.
Take `COC(=O)N[C@@H](Cc1cn(C)cn1)C(=O)N1CCC[C@H]1c1ncc(-c2ccc(-c3ccc(-c4cnc([C@@H]5CCCN5C(=O)[C@@H](NC(=O)OC)[C@@H](C)OC)[nH]4)cc3)cc2)[nH]1` [cj-43, methyl ((1S)-2-((2S)-2-(5-(4′-(2-((2S)-1-((2S,3R)-3-methoxy-2-((methoxycarbonyl)amino)butanoyl)-2-pyrrolidinyl)-1H-imidazol-5-yl)-4-biphenylyl)-1H-imidazol-2-yl)-1-pyrrolidinyl)-1-((1-methyl-1H-imidazol-4-yl)methyl)-2-oxoethyl)carbamate]: the EC50 fell in the range of 0.001 to 0.999 nM.

For `CCN(CC)[C@@H](C(=O)N1CCC[C@H]1c1ncc(-c2ccc(-c3ccc(-c4cnc([C@@H]5CCCN5C(=O)[C@H](Cc5cncn5C)NC(=O)OC)[nH]4)cc3)cc2)[nH]1)c1ccccc1` [cj-44, methyl ((1S)-2-((2S)-2-(5-(4′-(2-((2S)-1-((2R)-2-(diethylamino)-2-phenylacetyl)-2-pyrrolidinyl)-1H-imidazol-5-yl)-4-biphenylyl)-1H-imidazol-2-yl)-1-pyrrolidinyl)-1-((1-methyl-1H-imidazol-5-yl)methyl)-2-oxoethyl)carbamate], the EC50 was 0.001 to 0.999 nM. For `COC(=O)N[C@@H](C)C(=O)N1CCC[C@H]1c1ncc(-c2ccc(-c3ccc(-c4cnc([C@@H]5CCCN5C(=O)[C@H](Cc5cncn5C)NC(=O)OC)[nH]4)cc3)cc2)[nH]1` [cj-45, methyl ((1S)-2-((2S)-2-(5-(4′-(2-((2S)-1-(N-(methoxycarbonyl)-L-alanyl)-2-pyrrolidinyl)-1H-imidazol-5-yl)-4-biphenylyl)-1H-imidazol-2-yl)-1-pyrrolidinyl)-1-((1-methyl-1H-imidazol-5-yl)methyl)-2-oxoethyl)carbamate] the value was 0.001 to 0.999 nM.

With `COC(=O)N[C@@H](Cc1cncn1C)C(=O)N1CCC[C@H]1c1ncc(-c2ccc(-c3ccc(-c4cnc([C@@H]5CCCN5C(=O)[C@@H](NC(=O)OC)C(C)C)[nH]4)cc3)cc2)[nH]1` [cj-46, methyl ((1S)-1-(((2S)-2-(5-(4′-(2-((2S)-1-((2S)-2-((methoxycarbonyl)amino)-3-(1-methyl-1H-imidazol-5-yl)propanoyl)-2-pyrrolidinyl)-1H-imidazol-5-yl)-4-biphenylyl)-1H-imidazol-2-yl)-1-pyrrolidinyl)carbonyl)-2-methylpropyl)carbamate], the EC50 is 0.001 to 0.999 nM.

As for `COC(=O)N[C@@H](Cc1cncn1C)C(=O)N1CCC[C@H]1c1ncc(-c2ccc(-c3ccc(-c4cnc([C@@H]5CCCN5C(=O)[C@@H](NC(=O)OC)[C@@H](C)OC)[nH]4)cc3)cc2)[nH]1` [cj-47, methyl ((1S)-2-((2S)-2-(5-(4′-(2-((2S)-1-((2S,3R)-3-methoxy-2-((methoxycarbonyl)amino)butanoyl)-2-pyrrolidinyl)-1H-imidazol-5-yl)-4-biphenylyl)-1H-imidazol-2-yl)-1-pyrrolidinyl)-1-((1-methyl-1H-imidazol-5-yl)methyl)-2-oxoethyl)carbamate], the EC50 was in the range of 1 to 99 nM. The figure for `COC(=O)N[C@@H](C)C(=O)N1CCC[C@H]1c1ncc(-c2ccc(-c3ccc(-c4cnc([C@@H]5CCCN5C(=O)[C@@H]5CC(=O)N5)[nH]4)cc3)cc2)[nH]1` [cj-48] is 100 to 999 nM; for `COC(=O)N[C@@H](C)C(=O)N1CCC[C@H]1c1ncc(-c2ccc(-c3ccc(-c4cnc([C@@H]5CCCN5C(=O)[C@@H]5CCN5C(=O)OC)[nH]4)cc3)cc2)[nH]1` [cj-49, methyl (2S)-2-(((2S)-2-(5-(4′-(2-((2S)-1-(N-(methoxycarbonyl)-L-alanyl)-2-pyrrolidinyl)-1H-imidazol-5-yl)-4-biphenylyl)-1H-imidazol-2-yl)-1-pyrrolidinyl)carbonyl)-1-azetidinecarboxylate] it is 1 to 99 nM; for `CCN(CC)[C@@H](C(=O)N1CCC[C@H]1c1ncc(-c2ccc(-c3ccc(-c4cnc([C@@H]5CCCN5C(=O)[C@@H]5CCN5C(=O)OC)[nH]4)cc3)cc2)[nH]1)c1ccccc1` [cj-50, methyl (2S)-2-(((2S)-2-(5-(4′-(2-((2S)-1-((2R)-2-(diethylamino)-2-phenylacetyl)-2-pyrrolidinyl)-1H-imidazol-5-yl)-4-biphenylyl)-1H-imidazol-2-yl)-1-pyrrolidinyl)carbonyl)-1-azetidinecarboxylate] it is 0.001 to 0.999 nM. On to `CCN(CC)[C@@H](C(=O)N1CCC[C@H]1c1ncc(-c2ccc(-c3ccc(-c4cnc([C@@H]5CCCN5C(=O)C[C@H](C)NC(=O)OC)[nH]4)cc3)cc2)[nH]1)c1ccccc1` [cj-51, methyl ((1S)-3-((2S)-2-(5-(4′-(2-((2S)-1-((2R)-2-(diethylamino)-2-phenylacetyl)-2-pyrrolidinyl)-1H-imidazol-5-yl)-4-biphenylyl)-1H-imidazol-2-yl)-1-pyrrolidinyl)-1-methyl-3-oxopropyl)carbamate], for which the EC50 lay within 0.001 to 0.999 nM. The figure for `CCN(CC)[C@@H](C(=O)N1CCC[C@H]1c1ncc(-c2ccc(-c3ccc(-c4cnc([C@@H]5CCCN5C(=O)C[C@@H](NC(=O)OC)C(C)C)[nH]4)cc3)cc2)[nH]1)c1ccccc1` [cj-52, methyl ((1R)-3-((2S)-2-(5-(4′-(2-((2S)-1-((2R)-2-(diethylamino)-2-phenylacetyl)-2-pyrrolidinyl)-1H-imidazol-5-yl)-4-biphenylyl)-1H-imidazol-2-yl)-1-pyrrolidinyl)-1-isopropyl-3-oxopropyl)carbamate] is 0.001 to 0.999 nM; for `CCN(CC)[C@@H](C(=O)N1CCC[C@H]1c1ncc(-c2ccc(-c3ccc(-c4cnc([C@@H]5CCCN5C(=O)C[C@H](Cc5ccccc5)NC(=O)OC)[nH]4)cc3)cc2)[nH]1)c1ccccc1` [cj-53, methyl ((1S)-1-benzyl-3-((2S)-2-(5-(4′-(2-((2S)-1-((2R)-2-(diethylamino)-2-phenylacetyl)-2-pyrrolidinyl)-1H-imidazol-5-yl)-4-biphenylyl)-1H-imidazol-2-yl)-1-pyrrolidinyl)-3-oxopropyl)carbamate] it is 0.001 to 0.999 nM; for `CCN(CC)[C@@H](C(=O)N1CCC[C@H]1c1ncc(-c2ccc(-c3ccc(-c4cnc([C@@H]5CCCN5C(=O)C[C@H](Cc5cccs5)NC(=O)OC)[nH]4)cc3)cc2)[nH]1)c1ccccc1` [cj-54, methyl ((1R)-3-((2S)-2-(5-(4′-(2-((2S)-1-((2R)-2-(diethylamino)-2-phenylacetyl)-2-pyrrolidinyl)-1H-imidazol-5-yl)-4-biphenylyl)-1H-imidazol-2-yl)-1-pyrrolidinyl)-3-oxo-1-(2-thienylmethyl)propyl)carbamate] it is 0.001 to 0.999 nM.

Take `CCN(CC)[C@@H](C(=O)N1CCC[C@H]1c1ncc(-c2ccc(-c3ccc(-c4cnc([C@@H]5CCCN5C(=O)C[C@@H](Cc5ccsc5)NC(=O)OC)[nH]4)cc3)cc2)[nH]1)c1ccccc1` [cj-55, methyl ((1R)-3-((2S)-2-(5-(4′-(2-((2S)-1-((2R)-2-(diethylamino)-2-phenylacetyl)-2-pyrrolidinyl)-1H-imidazol-5-yl)-4-biphenylyl)-1H-imidazol-2-yl)-1-pyrrolidinyl)-3-oxo-1-(3-thienylmethyl)propyl)carbamate]: the concentration giving a half-maximal response (EC50) is 0.001 to 0.999 nM.

The values above are taken from patent US8574563B2 (Bristol-Myers Squibb Company, priority 2006, dated 2013).
